According to PubChem BioAssay AID1963828 (Molecular Pharmacology Branch, DTP, NCI, 2024):
pIC50: −log10 of the molar value. “And” between values parts separate entries of the source, which are not always exact repeats. Identical values can stand only once.

Test system: 991263-137-R1-J2-PDC complex spheroid viability
Experiment: Anticancer human tumor 991263-137-R1-J2-PDC patient-derived colon adenocarcinoma cell line growth inhibition [POLQ]
Conditions: for viability, T/C: stronger effect = lower value
Protocol: Multicellular complex tumor spheroid response to Polymerase (POL) inhibitors (novobiocin, ART-558, RP6685) in combination with a variety of drugs and investigational agents in selected tumor cell lines
The POL inhibitors (novobiocin, ART-558, and RP6685) were evaluated both individually and in combination with standard of care and investigational anticancer small molecules within a complex spheroid model of solid tumors. . Complex spheroids include a stromal component modeled by human endothelial cells (HUVEC) and fibroblasts modeled by human mesenchymal stem cells (MSCs). The concentration ranges selected for each drug and investigational agent were based upon clinically achievable concentrations if the clinical Cmax of the agent was known.
Compounds. The drugs and investigational agents: novobiocin (NSC847541), ART-558 (NSC835418), RP-6685 (NSC848927), peposertib (NSC802822), ceralasertib (NSC780249), elimusertib (NSC800525), camonsertib (NSC841442), AZD-1390 (NSC803789), olaparib (NSC753686), talazoparib (NSC767125), rucaparib (NSC756644), sotorasib (NSC818433), MRTX-1133 (NSC836407), SN-38 (NSC673596), topotecan (NSC609699), epotoside (NSC141540), doxorubicin (NSC123127), gemcitabine (NSC613327), 5-fluorouracil (NSC19893), paclitaxel (NSC125973), vemurafenib (NSC761431), MSA-2 (NSC828583), SN-011 (NSC837082), adavosertib (NSC754352), prexasertib (NSC758257), carboplatin (NSC241240) and oxaliplatin (NSC266046), were obtained from the National Cancer Institute (NCI) Developmental Therapeutics Program Chemical Repository (21). The FDA-approved anticancer drug set is available from the Developmental Therapeutics Program at https://dtp.cancer.gov/organization/dscb/obtaining/. […] The stock solutions were prepared in dimethyl sulfoxide (DMSO, Sigma-Aldrich, St. Louis, MO, cat. D2650), except for the platinum compounds which were prepared in saline (Quality Biological, Gaithersburg, MD, cat. 114-055-101), at 800-fold the tested concentration and stored at -70 degrees C prior to their use. All drugs and investigational agents were tested over a range starting from a high concentration at or near the clinical Cmax and decreasing in half-log increments. If the clinical Cmax for an agent had not been determined, the highest concentration tested was 10 microM, except for SN-38, which was tested at a high concentration of 1 microM.
Cell Culture. All cells were maintained in an incubator at 37 degrees C and 5% CO2 with 95% humidity. The PDC lines were cultured according to standard operating procedures established by the NCI PDMR (https://pdmr.cancer.gov). Table 3 of the manuscript, lists the cell lines along with the number of the three cell types plated to form the mct-spheroids and media for tumor cell growth. After thawing, all PDC lines, except 997537-175-T-J1-PDC and 415267-285-R-J2-PDC, were cultured in Matrigel-coated flasks prepared with a working solution of 1X Ham's F-12 nutrient mix, without supplementation (Thermo Fisher Scientific, cat. 11765054), 100 U/mL penicillin-streptomycin (Thermo Fisher Scientific, cat. 15140122), and 2.5% Matrigel (Corning Inc., Corning, NY, cat. 354248) for the first three passages. The two PDC lines 997537-175-T-J1-PDC and 415267-285-R-J2-PDC were cultured on uncoated flasks. The 857933-349-R-J2-PDC line was cultured in 6C/Colon 1B media containing advanced DMEM/F-12 (Thermo Fisher Scientific, cat. 12634028), 10 mM HEPES (Thermo Fisher Scientific, cat. 15630080), 1X GlutaMAX supplement (Thermo Fisher Scientific, cat. 35050061), 0.1 mg/mL primocin (InvivoGen, San Diego, CA, cat. ant-pm-2), 10% defined fetal bovine serum, heat inactivated (HyClone Laboratories Inc., Logan, UT, cat. SH30070.03HI), 50% L-WRN conditioned media (ATCC, cat. CRL-3276), 1.25 mM N-Acetyl-L-cysteine (Sigma-Aldrich, cat. A9165), 10 mM nicotinamide (Sigma-Aldrich, cat. N0636), 1X B-27 supplement (Thermo Fisher Scientific, cat. 17504044), 1X N-2 supplement (Thermo Fisher Scientific, cat. […]
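Note: spheroids exposed to compounds for 7 days before readout.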
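Throughout, for viability, T/C: 100% = DMSO vehicle control viability.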

For CC(C)n1c(=O)n(C)c2cnc3cc(F)c(-c4ccc(OCCCN5CCCCC5)nc4)cc3c21, the viability, T/C (compound 0.0316 µM) was 101% and 103% and 89.4%, the viability, T/C (compound 0.1 µM) was 103% and 104% and 95.9% and the viability, T/C (compound 0.316 µM) was 85.1% and 103% and 99.6%. The viability, T/C (compound 1 µM) was 110% and 121% and 129%, the viability, T/C (compound 3.16 µM) was 101% and 104% and 89.3% and the pIC50 (curve of compound) was < 5.00.

For CCc1cc2c(N3CCc4c(cc(Cn5ccnc5)cc4-c4cn(C)nc4C(F)(F)F)C3=O)ccnc2c(OC)n1, the viability, T/C (compound 0.0316 µM) was 95% and 111% and 105%, the viability, T/C (compound 0.1 µM) was 98.7% and 90.5% and 101% and the viability, T/C (compound 0.316 µM) was 94.4% and 103% and 99.7%. The viability, T/C (compound 1 µM) was 101% and 91.2% and 96.7%, the viability, T/C (compound 3.16 µM) was 91.8% and 97.7% and 83.7% and the viability, T/C (compound 10 µM) was 98.8% and 88.6% and 94.2%. The pIC50 (curve of compound) was < 5.00.

In the case of Cn1ncnc1[C@H]1c2n[nH]c(=O)c3cc(F)cc(c23)N[C@@H]1c1ccc(F)cc1, the viability, T/C (compound 0.000316 µM) was 102% and 97.3% and 87.3%, the viability, T/C (compound 0.001 µM) was 93.6% and 88.1% and 88.5% and the viability, T/C (compound 0.00316 µM) was 102% and 104% and 109%. For the same compound, the viability, T/C (compound 0.01 µM) was 109% and 105% and 119%, the viability, T/C (compound 0.0316 µM) was 89.6% and 101% and 84.5% and the viability, T/C (compound 0.1 µM) was 106% and 112% and 105%. The pIC50 (curve of compound) was < 7.00.

For COc1ccc([C@@H](O)c2cc(-c3ncnc4cc(N5CCOCC5)ccc34)c(F)cc2Cl)nn1, the viability, T/C (compound 0.0316 µM) was 105% and 102% and 82.6%, the viability, T/C (compound 0.1 µM) was 84.6% and 103% and 79.1% and the viability, T/C (compound 0.316 µM) was 98.5% and 95.2% and 91.9%. The viability, T/C (compound 1 µM) was 87% and 97.5% and 103%, the viability, T/C (compound 3.16 µM) was 68% and 66.7% and 59.3% and the viability, T/C (compound 10 µM) was 28.5% and 31.4% and 28.6%. For the same compound, the pIC50 (curve of compound) was 5.27 and 5.26 and 5.35.

For CC1COCCN1c1cc(C2(S(C)(=N)=O)CC2)nc(-c2ccnc3[nH]ccc23)n1 (stereo not given) + Cc1cccc(N(C)C(=O)C2C(O)CCN2c2nc(C)cc(C(F)(F)F)c2C#N)c1, the pIC50 (curve of first compound, second compound 0.0316 µM) was < 5.00, the pIC50 (curve of first compound, second compound 0.1 µM) was < 5.00 and the pIC50 (curve of first compound, second compound 0.316 µM) was < 5.00. For the same compound, the pIC50 (curve of first compound, second compound 1 µM) was < 5.00, the pIC50 (curve of first compound, second compound 3.16 µM) was < 5.00 and the pIC50 (curve of first compound, second compound 10 µM) was < 5.00. For the same compound, the viability, T/C (second compound 0.0316 µM, first compound 0.0316 µM) was 96.9%, the viability, T/C (second compound 0.0316 µM, first compound 0.1 µM) was 107% and the viability, T/C (second compound 0.0316 µM, first compound 0.316 µM) was 122%. For the same compound, the viability, T/C (second compound 0.0316 µM, first compound 1 µM) was 104%, the viability, T/C (second compound 0.0316 µM, first compound 3.16 µM) was 111% and the viability, T/C (second compound 0.0316 µM, first compound 10 µM) was 90.9%. For the same compound, the viability, T/C (second compound 0.1 µM, first compound 0.0316 µM) was 101%, the viability, T/C (second compound 0.1 µM, first compound 0.1 µM) was 103% and the viability, T/C (second compound 0.1 µM, first compound 0.316 µM) was 95%. The viability, T/C (second compound 0.1 µM, first compound 1 µM) was 96.2%, the viability, T/C (second compound 0.1 µM, first compound 3.16 µM) was 117% and the viability, T/C (second compound 0.1 µM, first compound 10 µM) was 106%. For the same compound, the viability, T/C (second compound 0.316 µM, first compound 0.0316 µM) was 95.7%, the viability, T/C (second compound 0.316 µM, first compound 0.1 µM) was 108% and the viability, T/C (second compound 0.316 µM, first compound 0.316 µM) was 73.7%. The viability, T/C (second compound 0.316 µM, first compound 1 µM) was 112%, the viability, T/C (second compound 0.316 µM, first compound 3.16 µM) was 84% and the viability, T/C (second compound 0.316 µM, first compound 10 µM) was 70%. The viability, T/C (second compound 1 µM, first compound 0.0316 µM) was 98.7%, the viability, T/C (second compound 1 µM, first compound 0.1 µM) was 102% and the viability, T/C (second compound 1 µM, first compound 0.316 µM) was 94.3%. For the same compound, the viability, T/C (second compound 1 µM, first compound 1 µM) was 75.4%, the viability, T/C (second compound 1 µM, first compound 3.16 µM) was 96.7% and the viability, T/C (second compound 1 µM, first compound 10 µM) was 92.5%. It also gave a viability, T/C (second compound 3.16 µM, first compound 0.0316 µM) of 88.1%, a viability, T/C (second compound 3.16 µM, first compound 0.1 µM) of 95.2% and a viability, T/C (second compound 3.16 µM, first compound 0.316 µM) of 99.2%. The viability, T/C (second compound 3.16 µM, first compound 1 µM) was 106%, the viability, T/C (second compound 3.16 µM, first compound 3.16 µM) was 101% and the viability, T/C (second compound 3.16 µM, first compound 10 µM) was 101%. The viability, T/C (second compound 10 µM, first compound 0.0316 µM) was 93.2%, the viability, T/C (second compound 10 µM, first compound 0.1 µM) was 97% and the viability, T/C (second compound 10 µM, first compound 0.316 µM) was 98.8%. The viability, T/C (second compound 10 µM, first compound 1 µM) was 98.5%, the viability, T/C (second compound 10 µM, first compound 3.16 µM) was 98.8% and the viability, T/C (second compound 10 µM, first compound 10 µM) was 77%.

For C=CCn1c(=O)c2cnc(Nc3ccc(N4CCN(C)CC4)cc3)nc2n1-c1cccc(C(C)(C)O)n1, the viability, T/C (compound 0.00316 µM) was 103% and 105% and 106%, the viability, T/C (compound 0.01 µM) was 88.5% and 105% and 93.9% and the viability, T/C (compound 0.0316 µM) was 87% and 106% and 98.4%. The viability, T/C (compound 0.1 µM) was 107% and 98.7% and 95.2%, the viability, T/C (compound 1 µM) was 86.5% and 94.9% and 95% and the pIC50 (curve of compound) was < 6.00.
